# Results as given in PMC12389022, “Drug Metabolism and Pharmacokinetic Evaluation of a Novel RNase H2 Inhibitor for the Treatment of Triple-Negative Breast Cancer” (Pharmaceutics, 2025).
# Where two headings read alike, the source gives them in different places.
# Tests used:
# [1] = R14 incubation in rat whole blood; type: in vitro ADME; conditions: R14 10 µg/mL, room temperature, 3 days
# Procedure: Previously, we observed the complete disappearance of R14 from mouse whole blood samples after being stored for 10 days in a −70 °C freezer, raising concerns about its stability under typical storage conditions. To further investigate the degradation and potential metabolic transformation of R14 in whole blood, we spiked rat whole blood with R14 (10 µg/mL) and left it at room temperature for 3 days. Room temperature incubation allows for ongoing enzymatic and non-enzymatic processes, providing insight into R14’s metabolic stability and degradation pathways under physiologically relevant but uncontrolled conditions. After incubation, a 4X volume of methanol containing 0.5% formic acid was added to the samples, followed by vortexing for 3 min and centrifugation to obtain supernatant prior to metabolite identification using the UHPLC coupled with quadrupole time-of-flight tandem mass spectrometry (UHPLC-QTOF MS/MS).
# Samples from in vivo pharmacokinetic studies, in vitro blood stability studies, and in vitro hepatic microsome studies were pretreated at the time of collection. Before analysis, the samples were thawed at room temperature, vortexed for 2 min, and centrifuged at 14,000 rpm for 20 min. An 80 µL aliquot of the supernatant was transferred to a sample vial for UHPLC-QTOF MS/MS analysis. […]
# [2] = Metabolite identification and relative exposure in rat plasma and urine (UHPLC-QTOF MS/MS); type: in vivo, Sprague Dawley rats; conditions: for Source P (detected in plasma): rat plasma after single oral dose of 50 mg/kg R14; for Source U (detected in urine): rat urine 0-24 h after single oral dose of 50 mg/kg R14; for Cumulative excretion in 24 h urine as fraction of total amount of R14 and its metabolites: rat urine 0-24 h, peak area x urine volume
# Procedure: (§1) For the oral pharmacokinetics of R14, rats were fasted overnight and 4 h post-administration of 50 mg/kg oral dose of R14, with free access to water in metabolic cages. Serial blood samples (0.15 mL each) were collected from the cannulated jugular vein into heparin-coating tubes before dosing and at 5 min, 15 min, 30 min, 45 min, 1 h, 2 h, 3 h, 4 h, 6 h, 8 h, 10 h, and 24 h time points post dose. Plasma samples were separated immediately by centrifugation of the blood samples at 13,000 rpm for 3 min. For R14 quantification, 10 μL plasma aliquots were mixed with 30 μL of a stabilizing derivatization solution (0.1 M citric acid and 0.1 M sodium sulfite) and stored at −80 °C for analysis by UHPLC-MS/MS. For metabolite identification, 20 μL plasma aliquots were mixed with 80 μL acetonitrile containing 0.5% formic acid and stored at −80 °C for UHPLC-QTOF MS/MS analysis. Urine samples were collected over 0–24 h and stored at −80 °C.
# Twenty microliters of urine were mixed with 80 µL of methanol containing 0.5% formic acid, vortexed for 2 min, and centrifuged for 20 min. An 80 µL Aliquot of the supernatant was transferred to a sample vial for metabolite identification using UHPLC-QTOF MS/MS.
# Samples from in vivo pharmacokinetic studies, in vitro blood stability studies, and in vitro hepatic microsome studies were pretreated at the time of collection. Before analysis, the samples were thawed at room temperature, vortexed for 2 min, and centrifuged at 14,000 rpm for 20 min. An 80 µL aliquot of the supernatant was transferred to a sample vial for UHPLC-QTOF MS/MS analysis.
# Metabolite identification was performed on a UHPLC-X500B QTOF MS/MS (SCIEX, Framingham, MA, USA) equipped with a Synergi Fusion-RP column (4 µm, 150 × 2 mm, 80 Å, Phenomenex, Torrance, CA, USA). The mobile phases were water with 0.1% formic acid (A) and methanol with 0.1% formic acid (B), delivered at a flow rate of 0.4 mL/min. The autosampler and oven temperatures were set at 10 °C and 30 °C, respectively. The running time was 30 min. The gradient elution was as follows: 10% B for 0.5 min; increased to 70% over 20 min; then to 95% over 2 min; held at 95% for 5 min; returned to 10% in 0.5 min; and equilibrated for 2 min.
# The QTOF MS/MS was operated In positive ion mode. Data were acquired in Information-dependent-acquisition (IDA) mode, starting with a TOF MS survey scan to detect precursor ions, followed by MS/MS scans of the top 10 most intense ions (intensity > 200 counts/s). TOF MS was set to scan m/z 200–700 with a 0.1 s accumulation time, while TOF MS/MS scanned m/z 50–700 with a 0.04 s accumulation time. The source temperature and spray voltage were set at 500 °C, and 5000 v, respectively. Curtain gas and collision gas (CAD) were set at 30 and 9 psi, while nebulizer gas (gas 1) and heater gas (gas 2) were set at 55 and 60 psi, respectively. The declustering potential (DP) was 50 V. Collision energy (CE) were 10 v for TOF MS and 35 v (±15 v spread) for TOF MS/MS. Data were acquired using SCIEX OS software 1.6.1, and processed on SCIEX OS software 3.1.0.
# To elucidate the metabolic pathways and identify unknown metabolites of R14, we employed a multi-step strategy. First, MS/MS fragmentation analysis was performed to characterize the fragmentation pattern of R14 and identify its key fragment ions, which served as references for metabolite identification. Next, based on the chemical structure of R14, potential biotransformation pathways mediated by hepatic cytochrome P450 enzymes were predicted. These predicted metabolites were then screened in urine samples collected during in vivo pharmacokinetic studies to identify excreted metabolites. Metabolites detected in urine were subsequently cross-verified in plasma samples from the same in vivo studies. If verification failed or additional metabolites were suspected, the analysis reverted to the initial fragmentation step to identify downstream or daughter metabolites. […]
# [3] = R14 permeability in the Caco-2 cell culture model; type: in vitro ADME; conditions: human, Caco-2, R14 10 µM
# Procedure: (§2) The permeability of R14 was assessed using the Caco-2 cell monolayer model, following the protocol by Liu and Hu (Liu 2002). Caco-2 cells (2.5 × 10^5 cells per insert; 4.2 cm^2 area, 3 μm pore size) were seeded and cultured at 37 °C with 90% humidity and 5% CO2 for 19–22 days. Monolayer integrity was evaluated using transepithelial electrical resistance (TEER) measurements with a Millicell ERS-2 system. Only monolayers with TEER values between 500 and 750 Ω·cm^2 were used.
# (§3) Hank’s Balanced Salt Solution (HBSS), supplemented with NaHCO3 (0.35 g/L), HEPES (5.96 g/L), and glucose (3.5 g/L), adjusted to the desired pH, was used as the transport medium. Cells from passages 41–49 were used.
# (§4) After confirming TEER, R14 working solution (10 µM) was added to either the apical or basolateral side of the insert, designating that side as the donor compartment, while the opposite side served as the receiver compartment. Samples (200 µL) were collected from both the apical (A) and basolateral (B) sides at 0, 0.5, 1, 2, and 4 h. The removed volume was immediately replaced with either fresh R14 working solution (on the donor side) or fresh buffer (on the receiver side) to maintain consistent volume and drug concentration throughout the experiment.
# (§5) For analysis, 100 µL of acetonitrile containing 0.6% formic acid and internal standard was added to each collected sample. After vortexing and centrifugation, the supernatant was analyzed using UHPLC-MS/MS for R14 quantification.
# (§6) The apparent permeability coefficient (P, cm/s) was calculated using the following equation: P=dQ/dt/A·C0 where dQ/dt is the permeability rate of drug appearance in the receiver compartment (µmol/s), A is the surface area of the cell monolayer (cm^2), and C0 is the initial concentration in the donor compartment (µmol/mL).
# (§7) Permeability was assessed in both directions (apical to basolateral and basolateral to apical), and the efflux ratio was calculated as: Effluxratio=Pb−a/Pa−b where Pa−b is the permeability coefficient from apical to basolateral, and Pb−a is the permeability coefficient from basolateral to apical.
# Caco-2 cell monolayer = assay: R14 permeability in the Caco-2 cell culture model; type: in vitro ADME; conditions: R14 10 µM
# Procedure: as §2, §3, §4, §5, §6, §7
# [4] = cited from earlier work
# [5] = parameters: method as in PMID 36924633; conditions: mouse whole blood stored at −70 °C; cited from earlier work
# MDA-MB-231 tumor = system: MDA-MB-231 tumor; parameters: method as in PMID 42013846; conditions: oral R14 vs vehicle controls; cited from earlier work
# [6] = Pharmacokinetics of R14 in rats after i.v. and oral dose; type: in vivo, Sprague Dawley rats; conditions: for AUC(0-t): read-out: AUC0→10h
# Procedure: This study was carried out in accordance with the recommendation of the Guidelines for the Care and Use of Laboratory Animals (2011) and was in compliance with the ARRIVE guidelines. All animal experiments were conducted with prior approval from the Texas Southern University Institutional Animal Care and Use Committee (IACUC). Male adult SD rats (250–350 g) were purchased from Envigo RMS (Indianapolis, IN, USA) and were housed in standard rodent cages (3–4 rats per cage) with a 12 h light/dark cycle at 22–24 °C and had free access to standard laboratory rodent chow (7012 Teklad mouse/rat diet from Envego, Inc., Indianapolis, IN, USA) and water. Rats were acclimated to the animal care facility for at least 7 days before the start of each experiment. Only male rats were used in the present study to minimize pharmacokinetic variations due to sex differences.
# To facilitate the timed withdrawal of multiple blood samples from each animal, the right jugular vein of each animal was cannulated one day prior to drug administration. The cannulas were flushed daily with 0.5 mL of sterile heparinized saline (100 units/mL). Under anesthesia using a cocktail of ketamine/acetopromazine/xylazine (50:3.3:3.3 mg/kg ip), silicone elastomer tubing (0.02 × 0.037 in) was inserted into the jugular vein, secured with a silk suture, and exteriorized in the dorsal intrascapular area. The surgical incision was prophylactically treated with nitrofurazone wound powder and closed with surgical staples.
# as §1
# For the intravenous (i.v.) pharmacokinetics of R14, another group of jugular vein cannulated rats received an i.v. administered 5 mg/kg R14 dose. Serial blood samples (0.15 mL each) were collected from the cannulated jugular vein into heparin-coating tubes before dosing and at 2 min, 5 min, 10 min, 30 min, 45 min, 1 h, 2 h, 4 h, 6 h, 8 h, 10 h, and 24 h time points post-dose. Plasma was processed similarly, with aliquots prepared for both R14 quantification and metabolite analysis, and urine collected over 24 h and stored at −80 °C.
# The urine sample (10 μL each) was pre-mixed with 30 µL of derivatization agent (also acting as stabilizing agent). Pre-mixed plasma samples (with the derivation agent before storage) or the pre-mixed urine samples were added to 360 µL of acetonitrile (containing 2.5 ng/mL warfarin), vortexed for 2 min, and then centrifuged for 20 min. The supernatant (80 μL) was mixed with 160 µL of acetonitrile containing 0.5% formic acid, and finally, 100 μL aliquot of the mixture was transferred to a sample vial for UHPLC-MS/MS analysis.
# R14 quantification via monitoring R14 bisulfite was conducted using a previously published method on a 6500+ Triple Quad UHPLC-MS/MS System (SCIEX, Framingham, MA, USA) coupled with a Synergi Fusion-RP column (50 × 2 mm, 4 µm, 80 Å, Phenomenex Inc., Torrance, CA, USA). […]
# [7] = male, Sprague Dawley, iv, i.v. 5 mg/kg, rat plasma, n = 3, mean ± SD
# [8] = male, Sprague Dawley, rat, plasma, iv, i.v. 5 mg/kg, rats, n = 3, mean ± SD
# [9] = male, Sprague Dawley, rat, plasma, oral 50 mg/kg, rats, n = 3, mean ± SD
# [10] = male, Sprague Dawley, oral 50 mg/kg, rat plasma, n = 3, mean ± SD
smiles,measurement,setting,value
Cc1ccccc1N1Sc2cc(F)ccc2C1O (stereo not drawn) [Metabolite M1],Source B (detected in whole blood incubation),[1],sole major metabolic product and √
same,Source P (detected in plasma),[2]; 50 mg/kg,low concentrations and relatively low levels and √
same,Source U (detected in urine),[2],undetectable
Cc1ccccc1N1Sc2cc(F)ccc2C1OC1OC(C(=O)O)C(O)C(O)C1O (stereo not drawn) [Metabolite M4],Source P (detected in plasma),[2],√
same,Apparent AUC in plasma relative to total AUC of R14 and all identified metabolites,"[2]; rat plasma, peak area as relative concentration",22.3%
same,Cumulative excretion in 24 h urine as fraction of total amount of R14 and its metabolites,[2],48.4%
same,Source U (detected in urine),[2],√
"Cc1ccccc1-n1sc2cc(F)ccc2c1=O [Metabolite R14, 6-Fluoro-2-(2-methylphenyl)-1,2-benzothiazol-3(2H)-one]","Papp A→B at 4 h, 10 µM","[3]; n = 3, read-out: Pa−b (apical-to-basolateral permeability)",6.39 ± 0.6 ×10⁻⁶ cm/s
same,"Papp B→A at 4 h, 10 µM","[3]; n = 3, read-out: Pb−a (basolateral-to-apical permeability)",6.41 ± 1.15 ×10⁻⁶ cm/s
same,"efflux ratio at 4 h, 10 µM",[3]; read-out: Efflux ratio (Pb−a/Pa−b),1.12
same,Permeability assessment,Caco-2 cell monolayer,moderate permeability
same,Solubility in DMSO,[4]; DMSO,25 mg/mL
same,Water solubility,[4]; water,poorly water soluble
same,Time to complete disappearance from whole blood samples,[5],≤ 10 days
same,Cumulative excretion in 24 h urine as fraction of total amount of R14 and its metabolites,[2],Less than 1%
same,Survival,MDA-MB-231 tumor,improved survival
same,Tumor size,MDA-MB-231 tumor,significantly reduced
same,AUC(0-inf),[6]; [7],1810 ± 444 ng·h/mL
same,AUC(0-t),[6]; [7],1580 ± 477 ng·h/mL
same,MRT,[6]; [8],1.63 ± 0.39 h
same,half-life,[6]; [8],5.39 ± 0.94 h
same,clearance,"[6]; male, Sprague Dawley, rat, plasma, iv, i.v. 5 mg/kg, rats, n = 3, mean ± SD, read-out: CL (systemic clearance) (converted)",43.8 mL/min/kg
same,Vd,"[6]; male, Sprague Dawley, rat, plasma, iv, i.v. 5 mg/kg, rats, n = 3, mean ± SD, read-out: Vd (volume of distribution)",20.7 ± 6.11 L/kg
same,bioavailability,"[6]; male, Sprague Dawley, rat, plasma, oral, 50 mg/kg, oral 50 mg/kg vs i.v. 5 mg/kg, rats, read-out: F% (absolute oral bioavailability)",13.4%
same,MRT,[6]; [9],2.82 ± 0.5 h
same,half-life,[6]; [9],2.99 ± 1.41 h
same,CL/F,"[6]; male, Sprague Dawley, rat, plasma, oral 50 mg/kg, rats, n = 3, mean ± SD, read-out: CL/F (apparent clearance) (converted)",367 mL/min/kg
same,Vd/F,"[6]; male, Sprague Dawley, rat, plasma, oral 50 mg/kg, rats, n = 3, mean ± SD, read-out: Vd/F (apparent volume of distribution)",93.3 ± 38.1 L/kg
same,Tmax,"[6]; male, Sprague Dawley, oral 50 mg/kg, rat plasma, n = 3",0.5 h
same,AUC(0-inf),[6]; [10],2430 ± 344 ng·h/mL
same,Cmax,[6]; [10],1150 ± 201 ng/mL
same,AUC(0-t),[6]; [10],2080 ± 255 ng·h/mL
same,F% (absolute oral bioavailability),"[6]; oral 50 mg/kg vs i.v. 5 mg/kg, rats",13.38%
